# According to patent US11419869B2, “Dosage forms and regimens for amino acid compounds” (Pliant Therapeutics, Inc., priority 2019, dated 2022):
# Target: recombinant human integrin αvβ6 (Homo sapiens (Human), UniProt P06756+P18564)
# Test: Solid Phase Integrin αvβ6 Binding Assay (Examples B1, B2)
# Conditions: TGFβ1 LAP ligand, values given in four ranges, read-out: αvβ6 Inhibition IC50 (nM)-range
# Method in brief: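 Plates coated with recombinant human αvβ6 (2 μg/mL) compete compound against recombinant TGFβ1 LAP (0.67 μg/mL) in TBS binding buffer with 0.5 mM MnCl2, 2 h at 25 °C. Bound LAP detected with biotin-anti-hLAP and peroxidase-streptavidin; IC50 by four-parameter logistic regression.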
# Sequence of recombinant human integrin αvβ6 (P06756 31-992): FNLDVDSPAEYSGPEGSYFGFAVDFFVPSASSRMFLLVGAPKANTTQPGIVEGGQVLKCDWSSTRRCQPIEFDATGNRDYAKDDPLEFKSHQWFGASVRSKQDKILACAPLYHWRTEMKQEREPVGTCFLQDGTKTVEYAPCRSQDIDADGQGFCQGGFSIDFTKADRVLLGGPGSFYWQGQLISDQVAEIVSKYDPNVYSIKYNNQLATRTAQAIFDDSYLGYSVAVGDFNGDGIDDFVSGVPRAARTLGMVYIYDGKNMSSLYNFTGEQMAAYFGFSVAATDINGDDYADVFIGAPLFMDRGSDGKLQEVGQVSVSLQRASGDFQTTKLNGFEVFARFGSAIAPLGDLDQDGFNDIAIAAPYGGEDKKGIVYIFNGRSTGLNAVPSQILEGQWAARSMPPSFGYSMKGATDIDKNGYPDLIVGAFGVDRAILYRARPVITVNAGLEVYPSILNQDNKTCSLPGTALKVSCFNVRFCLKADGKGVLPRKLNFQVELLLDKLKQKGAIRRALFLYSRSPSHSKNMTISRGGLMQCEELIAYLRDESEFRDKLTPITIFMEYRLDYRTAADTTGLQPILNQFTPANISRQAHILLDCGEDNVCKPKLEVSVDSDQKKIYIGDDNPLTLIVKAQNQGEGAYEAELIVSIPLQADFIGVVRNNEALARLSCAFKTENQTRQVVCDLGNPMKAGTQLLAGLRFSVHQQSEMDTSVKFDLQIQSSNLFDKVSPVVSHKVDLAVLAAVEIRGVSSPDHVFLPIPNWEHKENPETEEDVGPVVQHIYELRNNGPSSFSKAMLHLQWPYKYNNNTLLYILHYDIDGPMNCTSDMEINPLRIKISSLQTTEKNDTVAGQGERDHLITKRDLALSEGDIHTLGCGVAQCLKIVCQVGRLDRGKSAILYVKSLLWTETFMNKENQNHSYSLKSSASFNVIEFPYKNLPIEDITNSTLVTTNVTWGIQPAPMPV
# Sequence of recombinant human integrin αvβ6 (P18564 22-707): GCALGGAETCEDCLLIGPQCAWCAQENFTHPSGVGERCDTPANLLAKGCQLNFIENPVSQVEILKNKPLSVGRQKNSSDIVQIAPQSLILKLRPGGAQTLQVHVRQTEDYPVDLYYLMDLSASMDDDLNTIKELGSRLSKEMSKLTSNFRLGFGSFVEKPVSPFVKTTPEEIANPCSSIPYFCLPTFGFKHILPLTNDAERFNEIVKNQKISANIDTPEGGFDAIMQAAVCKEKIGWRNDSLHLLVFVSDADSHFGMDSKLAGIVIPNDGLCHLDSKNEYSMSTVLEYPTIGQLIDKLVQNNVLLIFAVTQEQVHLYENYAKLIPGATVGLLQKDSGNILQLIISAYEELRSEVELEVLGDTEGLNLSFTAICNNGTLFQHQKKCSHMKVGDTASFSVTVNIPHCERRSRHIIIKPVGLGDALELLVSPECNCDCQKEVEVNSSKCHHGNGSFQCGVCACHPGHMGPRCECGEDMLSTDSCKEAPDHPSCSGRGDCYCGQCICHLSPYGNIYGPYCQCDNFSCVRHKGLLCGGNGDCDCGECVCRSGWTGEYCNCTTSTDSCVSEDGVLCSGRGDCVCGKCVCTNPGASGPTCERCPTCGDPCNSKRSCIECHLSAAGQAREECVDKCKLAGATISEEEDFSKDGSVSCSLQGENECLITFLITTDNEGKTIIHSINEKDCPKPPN
row,Structure (SMILES),IC50 [nM]
1,"O=C(O)[C@H](CCN(CCCCc1ccc2c(n1)NCCC2)CCOc1ccccc1)Nc1nc(-c2cccnc2)nc2ccccc12 [Compound 94, (S)-4-((2-phenoxyethyl) (4-(5,6,7,8-tetrahydro-1,8-naphthyridin-2-yl)butyl)amino)-2-((2-(pyridin-3-yl)quinazolin-4-yl)amino) butanoic acid]",< 50
2,"O=C(O)[C@H](CCN(CCCCc1ccc2c(n1)NCCC2)CC(F)F)Nc1ncc(C(F)(F)F)cn1 [Compound 95, (S)-4-((2,2-difluoroethyl) (4-(5,6,7,8-tetrahydro-1,8-naphthyridin-2-yl)butyl)amino)-2-((5-(trifluoromethyl)pyrimidin-2-yl)amino) butanoic acid]",> 1000
3,"O=C(O)[C@H](CCN(CCCCc1ccc2c(n1)NCCC2)CC(F)F)Nc1ncc(Br)cn1 [Compound 96, (S)-2-((5-bromopyrimidin-2-yl)amino)-4-((2,2-difluoroethyl) (4-(5,6,7,8-tetrahydro-1,8-naphthyridin-2-yl)butyl)amino) butanoic acid]",> 1000
4,"O=C(O)[C@H](CCN(CCCCc1ccc2c(n1)NCCC2)CC(F)F)Nc1ccnc(C(F)(F)F)n1 [Compound 97, (S)-4-((2,2-difluoroethyl) (4-(5,6,7,8-tetrahydro-1,8-naphthyridin-2-yl)butyl)amino)-2-((2-(trifluoromethyl)pyrimidin-4-yl)amino) butanoic acid]",> 1000
5,"O=C(O)[C@H](CCN(CCCCc1ccc2c(n1)NCCC2)CC(F)F)Nc1cc(-n2cccn2)ncn1 [Compound 98, (S)-2-((6-(1H-pyrazol-1-yl)pyrimidin-4-yl)amino)-4-((2,2-difluoroethyl) (4-(5,6,7,8-tetrahydro-1,8-naphthyridin-2-yl)butyl)amino) butanoic acid]",> 1000
6,"CO[C@H](C)CN(CCCCc1ccc2c(n1)NCCC2)CC[C@H](Nc1nc(-c2cccnc2)nc2ccccc12)C(=O)O [Compound 100, (S)-4-(((R)-2-methoxypropyl) (4-(5,6,7,8-tetrahydro-1,8-naphthyridin-2-yl)butyl)amino)-2-((2-(pyridin-3-yl)quinazolin-4-yl)amino) butanoic acid]",< 50
7,"CS(=O)(=O)CCN(CCCCc1ccc2c(n1)NCCC2)CC[C@H](Nc1ncc(C(F)(F)F)cn1)C(=O)O [Compound 102, (S)-4-((2-(methylsulfonyl)ethyl) (4-(5,6,7,8-tetrahydro-1,8-naphthyridin-2-yl)butyl)amino)-2-((5-(trifluoromethyl)pyrimidin-2-yl)amino) butanoic acid]",> 1000
8,"CS(=O)(=O)CCN(CCCCc1ccc2c(n1)NCCC2)CC[C@H](Nc1ncc(Br)cn1)C(=O)O [Compound 103, (S)-2-((5-bromopyrimidin-2-yl)amino)-4-((2-(methylsulfonyl)ethyl) (4-(5,6,7,8-tetrahydro-1,8-naphthyridin-2-yl)butyl)amino) butanoic acid]",> 1000
9,"CS(=O)(=O)CCN(CCCCc1ccc2c(n1)NCCC2)CC[C@H](Nc1ccnc(C(F)(F)F)n1)C(=O)O [Compound 104, (S)-4-((2-(methylsulfonyl)ethyl) (4-(5,6,7,8-tetrahydro-1,8-naphthyridin-2-yl)butyl)amino)-2-((2-(trifluoromethyl)pyrimidin-4-yl)amino) butanoic acid]",> 1000
10,"COC[C@@H](F)CN(CCCCc1ccc2c(n1)NCCC2)CC[C@H](Nc1ncnc2c1cnn2C)C(=O)O [Compound 105, (S)-4-(((S)-2-fluoro-3-methoxypropyl) (4-(5,6,7,8-tetrahydro-1,8-naphthyridin-2-yl)butyl)amino)-2-((1-methyl-1H-pyrazolo[3,4-d]pyrimidin-4-yl)amino) butanoic acid]",< 50
11,"CO[C@H](C)CN(CCCCc1ccc2c(n1)NCCC2)CC[C@H](Nc1ccncn1)C(=O)O [Compound 106, (S)-4-(((R)-2-methoxypropyl) (4-(5,6,7,8-tetrahydro-1,8-naphthyridin-2-yl)butyl)amino)-2-(pyrimidin-4-ylamino) butanoic acid]",< 50
12,"CS(=O)(=O)CCN(CCCCc1ccc2c(n1)NCCC2)CC[C@H](Nc1nc(-c2cccnc2)nc2ccccc12)C(=O)O [Compound 107, (S)-4-((2-(methylsufonyl)ethyl) (4-(5,6,7,8-tetrahydro-1,8-naphthyridin-2-yl)butyl)amino)-2-((2-(pyridin-3-yl)quinazolin-4-yl)amino) butanoic acid]",250 to 1000
13,"COC[C@@H](F)CN(CCCCc1ccc2c(n1)NCCC2)CC[C@H](Nc1cc(-n2cccn2)ncn1)C(=O)O [Compound 108, (S)-2-((6-(1H-pyrazol-1-yl)pyrimidin-4-yl)amino)-4-(((S)-2-fluoro-3-methoxypropyl) (4-(5,6,7,8-tetrahydro-1,8-naphthyridin-2-yl)butyl)amino) butanoic acid]",> 1000
14,"COC[C@@H](F)CN(CCCCc1ccc2c(n1)NCCC2)CC[C@H](Nc1nc(-c2cccnc2)nc2ccccc12)C(=O)O [Compound 109, (S)-4-(((S)-2-fluoro-3-methoxypropyl) (4-(5,6,7,8-tetrahydro-1,8-naphthyridin-2-yl)butyl)amino)-2-((2-(pyridin-3-yl)quinazolin-4-yl)amino) butanoic acid]",< 50
15,"COC[C@@H](F)CN(CCCCc1ccc2c(n1)NCCC2)CC[C@H](Nc1ncncc1-c1ccccc1)C(=O)O [Compound 110, (S)-4-(((S)-2-fluoro-3-methoxypropyl) (4-(5,6,7,8-tetrahydro-1,8-naphthyridin-2-yl)butyl)amino)-2-((5-phenylpyrimidin-4-yl)amino) butanoic acid]",< 50
16,"N#Cc1cnc(N[C@@H](CCN(CCCCc2ccc3c(n2)NCCC3)CCOc2ccccc2)C(=O)O)nc1 [Compound 111, (S)-2-((5-cyanopyrimidin-2-yl)amino)-4-((2-phenoxyethyl) (4-(5,6,7,8-tetrahydro-1,8-naphthyridin-2-yl)butyl)amino) butanoic acid]",< 50
17,"O=C(O)[C@H](CCN(CCCCc1ccc2c(n1)NCCC2)C1CC1)Nc1ncc(C(F)(F)F)cn1 [Compound 114, (S)-4-(cyclopropyl(4-(5,6,7,8-tetrahydro-1,8-naphthyridin-2-yl)butyl)amino)-2-((5-(trifluoromethyl)pyrimidin-2-yl)amino) butanoic acid]",< 50
18,"O=C(O)[C@H](CCN(CCCCc1ccc2c(n1)NCCC2)CCOc1ccccc1)Nc1ncc(C2CC2)cn1 [Compound 117, (S)-2-((5-cyclopropylpyrimidin-2-yl)amino)-4-((2-phenoxyethyl) (4-(5,6,7,8-tetrahydro-1,8-naphthyridin-2-yl)butyl)amino) butanoic acid]",< 50
19,"N#Cc1cnc(N[C@@H](CCN(CCCCc2ccc3c(n2)NCCC3)CC(F)F)C(=O)O)nc1 [Compound 118, (S)-2-((5-cyanopyrimidin-2-yl)amino)-4-((2,2-difluoroethyl) (4-(5,6,7,8-tetrahydro-1,8-naphthyridin-2-yl)butyl)amino) butanoic acid]",> 1000
20,"O=C(O)[C@H](CCN(CCCCc1ccc2c(n1)NCCC2)CC(F)F)Nc1ncncc1-c1ccccc1 [Compound 119, (S)-4-((2,2-difluoroethyl) (4-(5,6,7,8-tetrahydro-1,8-naphthyridin-2-yl)butyl)amino)-2-((5-phenylpyrimidin-4-yl)amino) butanoic acid]",> 1000
21,"O=C(O)[C@H](CCN(CCCCc1ccc2c(n1)NCCC2)CC(F)F)Nc1ccncn1 [Compound 120, (S)-4-((2,2-difluoroethyl) (4-(5,6,7,8-tetrahydro-1,8-naphthyridin-2-yl)butyl)amino)-2-(pyrimidin-4-ylamino) butanoic acid]",> 1000
22,"O=C(O)[C@H](CCN(CCCCc1ccc2c(n1)NCCC2)CC(F)F)Nc1ncc(F)cn1 [Compound 121, (S)-4-((2,2-difluoroethyl) (4-(5,6,7,8-tetrahydro-1,8-naphthyridin-2-yl)butyl)amino)-2-((5-fluoropyrimidin-2-yl)amino) butanoic acid]",> 1000
23,"Cn1ncc2c(N[C@@H](CCN(CCCCc3ccc4c(n3)NCCC4)CCOc3ccc(F)cc3)C(=O)O)ncnc21 [Compound 123, (S)-4-((2-(4-fluorophenoxy)ethyl) (4-(5,6,7,8-tetrahydro-1,8-naphthyridin-2-yl)butyl)amino)-2-((1-methyl-1H-pyrazolo[3,4-d]pyrimidin-4-yl)amino) butanoic acid]",< 50
24,"CO[C@H](C)CN(CCCCc1ccc2c(n1)NCCC2)CC[C@H](Nc1ncc(C2CC2)cn1)C(=O)O [Compound 124, (S)-2-((5-cyclopropylpyrimidin-2-yl)amino)-4-(((R)-2-methoxypropyl) (4-(5,6,7,8-tetrahydro-1,8-naphthyridin-2-yl)butyl)amino) butanoic acid]",< 50
25,"CS(=O)(=O)CCN(CCCCc1ccc2c(n1)NCCC2)CC[C@H](Nc1cc(-n2cccn2)ncn1)C(=O)O [Compound 126, (S)-2-((6-(1H-pyrazol-1-yl)pyrimidin-4-yl)amino)-4-((2-(methylsulfonyl)ethyl) (4-(5,6,7,8-tetrahydro-1,8-naphthyridin-2-yl)butyl)amino) butanoic acid]",> 1000
26,"COC[C@@H](F)CN(CCCCc1ccc2c(n1)NCCC2)CC[C@H](Nc1cc(-c2ccccc2)ncn1)C(=O)O [Compound 128, (S)-4-(((S)-2-fluoro-3-methoxypropyl) (4-(5,6,7,8-tetrahydro-1,8-naphthyridin-2-yl)butyl)amino)-2-((6-phenylpyrimidin-4-yl)amino) butanoic acid]",> 1000
27,"O=C(O)[C@H](CCN(CCCCc1ccc2c(n1)NCCC2)CC1CCO1)Nc1ncnc2ccccc12 (stereo partly drawn) [Compound 129, (2S)-4-((oxetan-2-ylmethyl) (4-(5,6,7,8-tetrahydro-1,8-naphthyridin-2-yl)butyl)amino)-2-(quinazolin-4-ylamino) butanoic acid]",< 50
